Test results published in patent publication US20040235890A1, “Remedies for allergic diseases” (priority 2001, published 2004).
“Also recorded” adds a separate entry of the source. Counter-ions that a name gives are not always drawn.

Tests used:
[1] = test system: Allergic rhinitis model; assay: Allergic rhinitis model (ovalbumin-sensitised guinea pig, pituita weight); format: in vivo; settings: 0.01%, 0.1% and 1.0% solution, 40 uL nasally into both sides, 10 min before 1% ovalbumin; male Crj Hartley guinea pig; monohydrochloride salt
Method: Allergic rhinitis model was produced by administration of ovalbumin to male Crj Hartley guinea pig (6 weeks old) in the procedure shown in table 1.
At day 42, guinea pigs were inserted with tube into the trachea under anesthesia and kept the heat using heat pat. Forty micro liter of (+)-trans-3-imino-5-methyl-7-chloro-2-azabicyclo[4.1.0]heptane monohydrochloride salt (referred to as “compound A”) or physiological saline was administered nasally into both sides. Ten minutes later, 40 uL of 1% ovalbumin was administered nasally into both sides. Thirty minutes after ovalbumin administration, moisture in the nose was removed with absorbent cotton. Fifteen minutes later, absorbent cotton of which weight was measured was inserted into nose for 15 minutes. Pituita weight was calculated by the difference in weight between pre and post insertion.

[2] = test system: NOS; settings: cited from earlier work

SMILES | Pituita weight (suppression as compared to control, physiological saline) [1] | increase in NO production and vascular permeability in allergic conjunctivitis ([2]; Cornea, 19(1), 84-91 (2000)) | prostaglandin E2 production in acute phase of allergic conjunctivitis ([2]; Prostaglandins, 52(6), 431-446 (1996)) | effect on allergic conjunctivitis ([2]; in vivo)
C[C@H]1CC(=N)N[C@@H]2[C@H](Cl)[C@@H]21 (relative stereo) [compound A, (+)-trans-3-imino-5-methyl-7-chloro-2-azabicyclo[4.1.0]heptane monohydrochloride salt] | suppresses pituita weight in dose dependent manner; also recorded: noticeably suppresses pituita weights |  |  | 
COC(=O)[C@@H](N)CCCNC(=N)N[N+](=O)[O-] [L-NAME, N-ω-nitro-L-arginine methylester] |  | suppressed | suppresses prostaglandin E2 production | the action is weak
